In brackets after ≈: the same amount, converted by molar mass. Where two headings read alike, the source gives them in different places.
Tests used:
in vitro [1] = type: in vitro ADME, human; conditions: pH 7.4; for Cli human: 0.5 µM; for half-life: human microsomes, read-out: t1/2 in human microsomes
Protocol: (§1) Protocol S6. Microsomal fraction stability experimental procedure.
(§2) Pooled mouse and human liver microsomes are purchased from Xenotech. Microsomes (final protein concentration 0.5 mg/mL, MgCl2 (final concentration = 5 mM) and test compound (final substrate concentration = 0.5 µM; final DMSO concentration = 0.5%) in 0.1M phosphate buffer pH 7.4 were pre-incubated at 37°C prior to the addition of NADPH (final concentration = 1 mM) to initiate the reaction. The final incubation volume was 600 µL. A control incubation was included for each compound tested where 0.1 M phosphate buffer pH 7.4 is added instead of NADPH (minus NADPH). One control compound was included with each species. All incubations were performed singularly for each test compound. Each compound was incubated for 30 minutes and samples (90 µL) of incubate were taken at 0, 5, 15, 20 and 30 min. The control (minus NADPH) was sampled at 30 min only. The reactions were stopped by the addition of sample to 200 µL Acetonitrile:Methanol 3:1 containing internal standard. The terminated samples were centrifuged at 2.500 rpm for 20 min at 4°C to precipitate the protein.
(§3) Quantitative Analysis: following protein precipitation, the samples were analyzed using specific […]
(§4) Data Analysis: from a plot of ln peak area ratio (compound peak area/internal standard peak area) against time, the gradient of the line was determined. Subsequently, half-life and intrinsic clearance were calculated using the equations below:
(§5) Elimination rate constant (k) = (- gradient)
(§6) Half life (t1/2) (min) = […]
(§7) Intrinsic Clearance (CLint) (mL/min/g protein) = […] where V=Incubation volume mL/g microsomal protein.

in vitro [2] = conditions: plasma, pH 7.4
in vitro [3] = conditions: African green monkey
HepG2 cells = conditions: human, 48 h
[4] = target: human serum albumin (HSA) (Homo sapiens, UniProt P02768); type: in vitro ADME; conditions: human, pH 7.4
Sequence of human serum albumin (HSA) (P02768 25-609): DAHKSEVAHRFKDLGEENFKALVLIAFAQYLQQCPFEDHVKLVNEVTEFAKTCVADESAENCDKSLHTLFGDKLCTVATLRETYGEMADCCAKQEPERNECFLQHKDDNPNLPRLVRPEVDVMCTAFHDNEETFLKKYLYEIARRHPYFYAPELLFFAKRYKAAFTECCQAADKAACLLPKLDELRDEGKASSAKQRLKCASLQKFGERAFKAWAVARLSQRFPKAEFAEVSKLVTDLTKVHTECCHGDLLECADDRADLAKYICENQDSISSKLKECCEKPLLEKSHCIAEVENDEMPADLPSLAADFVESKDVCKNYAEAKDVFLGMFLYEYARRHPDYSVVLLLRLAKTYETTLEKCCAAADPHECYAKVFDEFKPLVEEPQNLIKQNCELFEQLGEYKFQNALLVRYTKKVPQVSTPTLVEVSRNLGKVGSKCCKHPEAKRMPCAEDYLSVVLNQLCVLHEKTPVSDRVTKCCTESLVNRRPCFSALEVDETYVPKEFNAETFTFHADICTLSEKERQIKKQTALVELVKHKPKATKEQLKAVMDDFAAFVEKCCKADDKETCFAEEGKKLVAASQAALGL
Protocol: Standard physical chemical property determination methods were used. Please see the Supporting Information for details.
Protocol S4. Determination of compounds binding to human serum albumin (HSA).
The determination of compounds binding to human serum albumin (HSA) was carried out by retention time measurements using immobilized HSA HPLC columns obtained from Chiral Technologies Ltd, France. The column dimensions were 50x3 mm. The mobile phase was 50 mM ammonium acetate buffer pH 7.4 and HPLC grade 2-propanol. HPLC Method: flow rate 1.8 ml/min applying 2.5 min 2-propanol gradient up to 30%. From 2.5 min to 4.5 min the 2-propanol concentration in the mobile phase was kept at 30%. From 4.5 min to 4.6 min, the 2-propanol concentration was decreased to 0% and kept like that until the end of the gradient run which was 6 min. A calibration set of compounds was first analyzed for which plasma protein binding data were available: Warfarin, Nizatidine, Bromazepam, Carbamazepine, Budesonide, Nicardipine, Indomethacine, Piroxicam, Naproxen. The calculation of the HSA binding data expressed as %HSA was carried out as described previously.

in vitro [5] = type: in vitro ADME, mouse; conditions: pH 7.4; for half-life: mouse microsomes, read-out: t1/2 in mouse microsomes; for Cli mouse: 0.5 µM
Protocol: as §1, §2, §3, §4, §5, §6, §7

M. tuberculosis H37Rv = experiment: microbe, parasite or virus in culture; type: cell-based; conditions: Mycobacterium tuberculosis, aerobic conditions

| Compound | Cli human (in vitro [1]) [mL/min/g] | half-life (in vitro [1]) [min] | melting point [°C] | fraction unbound at 1 µM (in vitro [2]) | CC50 at 72 h (in vitro [3]) [µM] | Tox50, cytotoxicity in HepG2 cells (HepG2 cells) [µM] | chromatographic logD (physchem; pH 2) | chromatographic logD (physchem; pH 7.4) | chromatographic logD (physchem; pH 10.5) | HSA (%) binding [4] [%] | half-life (in vitro [5]) [min] | MIC (M. tuberculosis H37Rv) [µM] | Cli mouse (in vitro [5]) [mL/min/g] |
| --- | --- | --- | --- | --- | --- | --- | --- | --- | --- | --- | --- | --- | --- |
| Cc1ccc(-c2cc(CN3CCOCC3)c(C)n2-c2ccc(F)cc2)cc1 [Compound 5, 2-Methyl-3-[(morpholin-4-yl)-methyl]-5-[4-(methyl)phenyl]-1-[4-(fluoro)phenyl]-1H-pyrrole] | <0.5 | > 30 | 133 to 135 | 0.005 | > 351 | 20.08 | 1.12 | 3.86 | 4.26 | 96.72 | 20.4 | 0.3 (≈ 0.109 µg/mL) | – |
| CCCc1ccc(-c2cc(CN3CCOCC3)c(C)n2-c2ccc(Cl)cc2)cc1 [Compound 12, 2-Methyl-3-[(morpholin-4-yl)-methyl]-5-[4-(propyl)phenyl]-1-[4-(chloro)phenyl]-1H-pyrrole] | <0.5 | > 30 | 113 | < 0.001 | > 256 | 13.3 | 1.61 | 5.3 | 5.59 | 98.00 | > 30 | 2 (≈ 0.818 µg/mL) | – |
| CCc1ccc(-n2c(-c3ccc(Cl)cc3)cc(CN3CCOCC3)c2C)cc1 [Compound 15, 2-Methyl-3-[(morpholin-4-yl)-methyl]-5-[4-(chloro)phenyl]-1-[4-(ethyl)phenyl]-1H-pyrrole] | 0.9 ± 0 | > 30 | 102 | < 0.001 | 170 | 17.8 | 1.54 | 5.01 | 5.36 | 98.03 | 18.5 | 0.6 (≈ 0.237 µg/mL) | 4.0 ± 0.1 |
| COc1ccc(-c2cc(CN3CCOCC3)c(C)n2-c2ccc(C)cc2)cc1 [Compound 22, 2-Methyl-3-[(morpholin-4-yl)-methyl]-5-[4-(methoxy)phenyl]-1-[4-(methyl)phenyl]-1H-pyrrole] | 1.14 | > 30 | 115 | 0.008 | 50.1 | 11.3 | 1.02 | 3.57 | 4.11 | 95.64 | < 5 | 0.6 (≈ 0.226 µg/mL) | 12.62 |
| CSc1ccc(-c2cc(CN3CCSCC3)c(C)n2-c2ccc(F)cc2)cc1 [Compound 4] | – | – | – | 0.007 | 15.2 | – | 1.33 | 4.52 | 5.03 | 98.04 | 10 | 0.16 to 0.2 (≈ 0.066 to 0.0825 µg/mL) | 7.3 ± 0.1 |
| COc1ccc(-c2cc(CN3CCOCC3)c(C)n2-c2ccc(F)cc2)cc1 [Compound 6, 2-Methyl-3-[(morpholin-4-yl)-methyl]-5-[4-(methoxy)phenyl]-1-[4-(fluoro)phenyl]-1H-pyrrole] | 0.5 ± 0 | > 30 | 169 | 0.017 | 58.7 | – | 0.93 | 3.32 | 3.73 | 95.58 | 15.9 | 0.6 (≈ 0.228 µg/mL) | 4.7 ± 0.1 |
| Cc1c(CN2CCN(C)CC2)cc(-c2ccc(Cl)cc2)n1-c1ccc(Cl)cc1 [Compound 1] | – | – | – | 0.002 | – | 7.8 | 0.7 | 4.51 | 5.01 | 98.07 | > 30 | 5 (≈ 2.07 µg/mL) | 0.7 ± 0.1 |
| CCc1ccc(-n2c(-c3ccc(OC)cc3)cc(CN3CCOCC3)c2C)cc1 [Compound 23, 2-Methyl-3-[(morpholin-4-yl)-methyl]-5-[4-(methoxy)phenyl]-1-[4-(ethyl)phenyl]-1H-pyrrole] | <0.5 | > 30 | 72 | 0.002 | 16 | 14.7 | 1.24 | 4.05 | 4.52 | 96.79 | < 5 | 0.3 (≈ 0.117 µg/mL) | 7.8 ± 0.5 |
| Cc1ccc(-c2cc(CN3CCSCC3)c(C)n2-c2ccc(F)cc2)cc1 [Compound 2] | – | – | – | < 0.001 | 179 | 24.01 | 1.31 | 4.54 | 5.08 | 97.91 | 8.2 | 0.16 to 0.2 (≈ 0.0609 to 0.0761 µg/mL) | 7.2 ± 0.2 |
| COc1ccc(-c2cc(CN3CCSCC3)c(C)n2-c2ccc(F)cc2)cc1 [Compound 3] | – | – | – | 0.004 | > 302 | – | 1.07 | 3.97 | 4.62 | 96.82 | < 5 | 0.16 to 0.2 (≈ 0.0634 to 0.0793 µg/mL) | 18.76 |

From publication PMC3578785, “Improved BM212 MmpL3 Inhibitor Analogue Shows Efficacy in Acute Murine Model of Tuberculosis Infection” (PLoS ONE, 2013)
